# According to PubChem BioAssay (NCI):
#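 Values below derive from 48-hour exposures of cells grown in 96-well plates, with endpoints linearly interpolated between the two concentrations bracketing the appropriate inhibition level. TGI marks complete inhibition of growth.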
# Key:
# Assay in all cases: NCI-60 cell line screen, 48 h
# [1] = test system: 786-0 renal
# [2] = test system: A498 renal
# [3] = test system: A549 NSCLC
# [4] = test system: ACHN renal
# [5] = test system: BT-549 breast
# [6] = test system: CAKI-1 renal
# [7] = test system: CCRF-CEM leukemia
# [8] = test system: COLO 205 colon
# [9] = test system: DU-145 prostate
# [10] = test system: EKVX NSCLC
# [11] = test system: HCC-2998 colon
# [12] = test system: HCT-116 colon
# [13] = test system: HCT-15 colon
# [14] = test system: HL-60(TB) leukemia
# [15] = test system: HOP-62 NSCLC
# [16] = test system: HOP-92 NSCLC
# [17] = test system: HS 578T breast
# [18] = test system: HT29 colon
# [19] = test system: IGROV1 ovarian
# [20] = test system: K-562 leukemia
# [21] = test system: KM12 colon
# [22] = test system: LOX IMVI melanoma
# [23] = test system: M14 melanoma
# [24] = test system: MALME-3M melanoma
# [25] = test system: MCF7 breast
# [26] = test system: MDA-MB-231 breast
# [27] = test system: MDA-MB-435
# [28] = test system: MDA-N
# [29] = test system: MOLT-4 leukemia
# [30] = test system: NCI-H226 lung
# [31] = test system: NCI-H23 lung
# [32] = test system: NCI-H460 lung
# [33] = test system: NCI-H522 lung
# [34] = test system: NCI/ADR-RES ovarian
# [35] = test system: OVCAR-3 ovarian
# [36] = test system: OVCAR-4 ovarian
# [37] = test system: OVCAR-5 ovarian
# [38] = test system: OVCAR-8 ovarian
# [39] = test system: PC-3 prostate
# [40] = test system: RPMI-8226 leukemia
# [41] = test system: RXF 393 renal
# [42] = test system: SF-268 CNS
# [43] = test system: SF-295 CNS
# [44] = test system: SF-539 CNS
# [45] = test system: SK-MEL-2 melanoma
# [46] = test system: SK-MEL-28 melanoma
# [47] = test system: SK-MEL-5 melanoma
# [48] = test system: SK-OV-3 ovarian
# [49] = test system: SN12C renal
# [50] = test system: SNB-19 CNS
# [51] = test system: SNB-75 CNS
# [52] = test system: SR leukemia
# [53] = test system: SW-620 colon
# [54] = test system: T-47D breast
# [55] = test system: TK-10 renal
# [56] = test system: U251 CNS
# [57] = test system: UACC-257 melanoma
# [58] = test system: UACC-62 melanoma
# [59] = test system: UO-31 renal
compound,measurement,setting,value
CC1=NN(c2ccc(C)cc2)C2(C1)SCC(=O)N2c1nc2ccccc2s1 (stereo unspecified),TGI,[1],71 µM
same,TGI,[2],70.6 µM
same,TGI,[3],> 100 µM
same,TGI,[4],> 100 µM
same,TGI,[5],> 100 µM
same,TGI,[6],> 100 µM
same,TGI,[7],28.4 µM
same,TGI,[8],57.9 µM
same,TGI,[9],> 100 µM
same,TGI,[10],99.1 µM
same,TGI,[11],48.3 µM
same,TGI,[12],51.1 µM
same,TGI,[13],> 100 µM
same,TGI,[14],36.5 µM
same,TGI,[15],> 100 µM
same,TGI,[16],> 100 µM
same,TGI,[17],> 100 µM
same,TGI,[18],> 100 µM
same,TGI,[19],> 100 µM
same,TGI,[20],> 100 µM
same,TGI,[21],> 100 µM
same,TGI,[22],76.2 µM
same,TGI,[23],> 100 µM
same,TGI,[24],> 100 µM
same,TGI,[25],48.8 µM
same,TGI,[26],41.4 µM
same,TGI,[27],> 100 µM
same,TGI,[28],70.2 µM
same,TGI,[29],46.1 µM
same,TGI,[30],47 µM
same,TGI,[31],77.5 µM
same,TGI,[32],56.5 µM
same,TGI,[33],52.6 µM
same,TGI,[34],76.2 µM
same,TGI,[35],92.6 µM
same,TGI,[36],> 100 µM
same,TGI,[37],> 100 µM
same,TGI,[38],> 100 µM
same,TGI,[39],70.1 µM
same,TGI,[40],50.1 µM
same,TGI,[41],54.8 µM
same,TGI,[42],> 100 µM
same,TGI,[43],> 100 µM
same,TGI,[44],46.8 µM
same,TGI,[45],61.1 µM
same,TGI,[46],> 100 µM
same,TGI,[47],24.2 µM
same,TGI,[48],> 100 µM
same,TGI,[49],52.2 µM
same,TGI,[50],> 100 µM
same,TGI,[51],64.7 µM
same,TGI,[52],28.1 µM
same,TGI,[53],> 100 µM
same,TGI,[54],67.1 µM
same,TGI,[55],74.4 µM
same,TGI,[56],65.5 µM
same,TGI,[57],55.1 µM
same,TGI,[58],45.6 µM
same,TGI,[59],> 100 µM
CN(C)c1ccc(/C=C(\NC(=O)c2ccccc2)C(=O)Nc2ccccc2C(=O)NN2C(=O)CSC2c2ccc(N(C)C)cc2)cc1 (stereo unspecified),TGI,[1],> 100 µM
same,TGI,[2],> 100 µM
same,TGI,[3],> 100 µM
same,TGI,[4],> 100 µM
same,TGI,[5],> 100 µM
same,TGI,[6],> 100 µM
same,TGI,[7],> 100 µM
same,TGI,[8],> 100 µM
same,TGI,[9],> 100 µM
same,TGI,[10],> 100 µM
same,TGI,[11],21.4 µM
same,TGI,[12],> 100 µM
same,TGI,[13],> 100 µM
same,TGI,[14],> 100 µM
same,TGI,[15],> 100 µM
same,TGI,[16],> 100 µM
same,TGI,[17],> 100 µM
same,TGI,[18],> 100 µM
same,TGI,[19],> 100 µM
same,TGI,[20],> 100 µM
same,TGI,[21],> 100 µM
same,TGI,[22],> 100 µM
same,TGI,[23],> 100 µM
same,TGI,[24],> 100 µM
same,TGI,[25],> 100 µM
same,TGI,[26],> 100 µM
same,TGI,[27],> 100 µM
same,TGI,[28],> 100 µM
same,TGI,[29],> 100 µM
same,TGI,[30],> 100 µM
same,TGI,[31],> 100 µM
same,TGI,[32],31.7 µM
same,TGI,[33],> 100 µM
same,TGI,[34],> 100 µM
same,TGI,[35],> 100 µM
same,TGI,[37],> 100 µM
same,TGI,[38],> 100 µM
same,TGI,[39],> 100 µM
same,TGI,[40],> 100 µM
same,TGI,[41],> 100 µM
same,TGI,[42],> 100 µM
same,TGI,[43],> 100 µM
same,TGI,[44],> 100 µM
same,TGI,[45],> 100 µM
same,TGI,[46],> 100 µM
same,TGI,[47],> 100 µM
same,TGI,[48],> 100 µM
same,TGI,[49],> 100 µM
same,TGI,[50],> 100 µM
same,TGI,[51],> 100 µM
same,TGI,[52],> 100 µM
same,TGI,[53],> 100 µM
same,TGI,[54],> 100 µM
same,TGI,[56],> 100 µM
same,TGI,[57],32.2 µM
same,TGI,[58],> 100 µM
same,TGI,[59],> 100 µM
